Drawing on PubChem BioAssay (NCI), this text covers TGI for 11 molecules.

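Cultured in 96-well plates, cells were exposed to test compound for 48 hours across five concentrations. TGI: concentration producing complete growth inhibition.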

Among the test systems are HS 578T breast; NCI/ADR-RES ovarian; KM12 colon; OVCAR-4 ovarian; A498 renal; CAKI-1 renal; HOP-62 NSCLC; CCRF-CEM leukemia; SNB-75 CNS; IGROV1 ovarian.
Holding throughout (experiment): inhibition of tumour cell growth, NCI panel, 48 h

`COC(=O)c1c(O)ccc2c1c1c(n2Cc2ccc(OC)cc2)C(=O)c2ccccc2C1`: the TGI is more than 100 µM in the test on HS 578T breast; more than 100 µM in the test on NCI/ADR-RES ovarian; more than 100 µM in the test with KM12 colon; more than 100 µM in the test on OVCAR-4 ovarian; more than 100 µM in the test on A498 renal; 74.1 µM in the test on CAKI-1 renal. Besides, the TGI was more than 100 µM with HOP-62 NSCLC, 89.4 µM in the test with CCRF-CEM leukemia, more than 100 µM in the test with SNB-75 CNS and more than 100 µM in the test with IGROV1 ovarian.

As for `C[C@H]1CCC/C=C/[C@@H]2C[C@H](OC3OC(CO)C(O)C(O)C3O)C[C@H]2[C@H](O)/C=C/C(=O)O1` (stereo not given in full), the TGI is more than 100 µM with HS 578T breast; more than 100 µM with NCI/ADR-RES ovarian; 98 µM in the test on KM12 colon; more than 100 µM with OVCAR-4 ovarian; 69.1 µM in the test on A498 renal; more than 100 µM in the test on CAKI-1 renal. Besides, the TGI with HOP-62 NSCLC, in the test on CCRF-CEM leukemia, with SNB-75 CNS and in the test on IGROV1 ovarian was more than 100 µM in each case.

Regarding `CC(C)OC(=O)C(NC(=O)C(CC(=O)OCc1ccccc1)NC(=O)OCc1ccccc1)NC(=O)C1C(C)(C)CCC1(C)C` (stereo not given), the TGI was determined as 23.5 µM with HS 578T breast; 21.2 µM in the test on NCI/ADR-RES ovarian; 34.9 µM in the test with KM12 colon; 14.2 µM in the test on OVCAR-4 ovarian; 4.37 µM with A498 renal; 21.9 µM with CAKI-1 renal. Besides, the TGI in the test on HOP-62 NSCLC is 18.7 µM; with CCRF-CEM leukemia it was more than 41.2 µM; in the test on SNB-75 CNS it was 11.5 µM; in the test with IGROV1 ovarian, 64.2 µM.

For `Cn1c(CO)ccc1-c1ccc(-c2ccc(CO)[se]2)[se]1`, the TGI in the test on HS 578T breast was more than 100 µM; in the test on NCI/ADR-RES ovarian it was more than 100 µM; in the test on KM12 colon, more than 64.1 µM; with OVCAR-4 ovarian it was 3.67 µM; in the test on A498 renal, 0.0684 µM; with CAKI-1 renal it was 0.0381 µM. Moreover, the TGI in the test with HOP-62 NSCLC is 40.8 µM; with CCRF-CEM leukemia it was more than 21 µM; in the test with SNB-75 CNS, more than 100 µM; with IGROV1 ovarian, 12.4 µM.

Turning to `CN(C)c1cccc2c(S(=O)(=O)NCCN)cccc12`, the TGI in the test with HS 578T breast is more than 100 µM; with NCI/ADR-RES ovarian, more than 100 µM; in the test with KM12 colon, more than 100 µM; in the test on OVCAR-4 ovarian it was more than 100 µM; in the test on A498 renal, 69.8 µM; in the test with CAKI-1 renal, more than 100 µM. Also, the TGI is more than 100 µM in the test with HOP-62 NSCLC, more than 100 µM in the test with CCRF-CEM leukemia, 64.1 µM with SNB-75 CNS and 91.9 µM with IGROV1 ovarian.

On to `O=C(Nc1cccc2ccccc12)c1cc2ccccc2oc1=O`, for which the TGI in the test on HS 578T breast, with NCI/ADR-RES ovarian, in the test with KM12 colon, in the test on OVCAR-4 ovarian, in the test on A498 renal and in the test with CAKI-1 renal was more than 100 µM each time. Also, the TGI with HOP-62 NSCLC was 49.4 µM; in the test with CCRF-CEM leukemia, more than 100 µM; in the test on SNB-75 CNS it was more than 100 µM; in the test on IGROV1 ovarian, more than 100 µM.

For `C/C(=N\NC(=S)NC(C)(C)C)c1nc2ncccc2[nH]1`, the TGI in the test with HS 578T breast was more than 30.2 µM; with NCI/ADR-RES ovarian, more than 84.4 µM; in the test with KM12 colon, more than 100 µM; with OVCAR-4 ovarian, more than 100 µM; in the test with A498 renal, more than 100 µM; in the test with CAKI-1 renal, 16.4 µM. Also, the TGI with HOP-62 NSCLC is more than 84.9 µM; with CCRF-CEM leukemia it was 35.1 µM; in the test on SNB-75 CNS, more than 84.5 µM; in the test on IGROV1 ovarian, 50.6 µM.

Take `C/C(=N/NC(=S)Nc1ccc(C)cc1)c1ccccn1`: the TGI with HS 578T breast stood at 17 µM; with NCI/ADR-RES ovarian, 1.34 µM; in the test with KM12 colon it was 15.5 µM; in the test with OVCAR-4 ovarian it was 17.2 µM; with A498 renal, 15.9 µM; in the test with CAKI-1 renal, 13.9 µM. The TGI is 5.55 µM in the test on HOP-62 NSCLC, 4.64 µM with CCRF-CEM leukemia, 17.2 µM in the test with SNB-75 CNS and 13.6 µM in the test with IGROV1 ovarian.

On to `O=C(N/N=C/c1ccccc1)c1c(F)c(F)c(F)c(F)c1F`, for which the TGI in the test on HS 578T breast, in the test on NCI/ADR-RES ovarian, with KM12 colon, with OVCAR-4 ovarian, in the test on A498 renal and with CAKI-1 renal was more than 100 µM throughout. Further, the TGI in the test on HOP-62 NSCLC, in the test with CCRF-CEM leukemia, in the test with SNB-75 CNS and in the test on IGROV1 ovarian was more than 100 µM in each case.

Take `Cc1nc(C(=Nc2ccc(Br)cc2)Nn2cnnc2)no1`: the TGI in the test on HS 578T breast, in the test with NCI/ADR-RES ovarian, in the test on KM12 colon, in the test on OVCAR-4 ovarian, in the test on A498 renal and in the test on CAKI-1 renal was more than 100 µM in each case. Also, the TGI in the test on HOP-62 NSCLC, in the test on CCRF-CEM leukemia, in the test on SNB-75 CNS and with IGROV1 ovarian was more than 100 µM in each case.

As to `COC(=O)CCC(C)[C@H]1CCC2C3CC[C@@H]4CC5(CC[C@]4(C)C3C[C@H](OC(C)=O)[C@@]21C)OOC1(CCCCC1)OO5` (stereo not given in full), the TGI in the test on HS 578T breast is more than 100 µM; with NCI/ADR-RES ovarian, more than 100 µM; in the test with KM12 colon it was more than 100 µM; in the test on OVCAR-4 ovarian, more than 100 µM; in the test with A498 renal it was more than 100 µM; in the test with CAKI-1 renal, 37 µM. Also, the TGI in the test on HOP-62 NSCLC was more than 100 µM; in the test on CCRF-CEM leukemia, more than 100 µM; in the test on SNB-75 CNS, more than 100 µM; with IGROV1 ovarian it was 5.48 µM.
